Earlier results in paper PMC8513935.
One block for each compound: values may come before it.

Assays:
[1] = experimental, compiled by the authors from the literature (the ESI cites the sources)
[2] = derived by the authors as gas->solvent minus gas->water (a hypothetical dry solvent; the ESI), not a two-phase measurement
[3] = log P octanol/water from commercial databases, averaged (the ESI); conditions: Octanol (wet), 25 C

SMILES: Cc1cccc(C)c1
log K of transfer, gas to solvent ([1]; 1,2-Dichloroethane, 25 C): 4.38 log10 K | log K of transfer, gas to solvent ([1]; CCl4, 25 C): 4.18 log10 K | log K of transfer, gas to solvent ([1]; Chloroform, 25 C): 4.29 log10 K | log K of transfer, gas to solvent ([1]; Cyclohexane, 25 C): 3.95 log10 K | log K of transfer, gas to solvent ([1]; Hexadecane, 25 C): 3.84 log10 K | log K of transfer, gas to solvent ([1]; Octan-1-ol, 25 C): 3.79 log10 K | log K of transfer, gas to solvent ([1]; Water, 25 C): 0.61 log10 K | log K of transfer, water to solvent ([2]; 1,2-Dichloroethane, 25 C): 3.77 log10 K | log K of transfer, water to solvent ([2]; CCl4, 25 C): 3.57 log10 K | log K of transfer, water to solvent ([2]; Chloroform, 25 C): 3.68 log10 K | log K of transfer, water to solvent ([2]; Cyclohexane, 25 C): 3.34 log10 K | log K of transfer, water to solvent ([2]; Hexadecane, 25 C): 3.23 log10 K | log K of transfer, water to solvent ([2]; Octan-1-ol(dry), 25 C): 3.18 log10 K | log K of transfer, water to solvent [3]: 3.2 log10 K

SMILES: O=C1CCCCC1
log K of transfer, gas to solvent ([1]; 1,2-Dichloroethane, 25 C): 4.97 log10 K | log K of transfer, gas to solvent ([1]; CCl4, 25 C): 4.57 log10 K | log K of transfer, gas to solvent ([1]; Cyclohexanone, 25 C): 4.65 log10 K | log K of transfer, gas to solvent ([1]; Hexadecane, 25 C): 3.79 log10 K | log K of transfer, gas to solvent ([1]; Hexane, 25 C): 3.65 log10 K | log K of transfer, gas to solvent ([1]; Water, 25 C): 3.6 log10 K | log K of transfer, water to solvent ([2]; 1,2-Dichloroethane, 25 C): 1.37 log10 K | log K of transfer, water to solvent ([2]; CCl4, 25 C): 0.97 log10 K | log K of transfer, water to solvent ([2]; Cyclohexanone, 25 C): 1.05 log10 K | log K of transfer, water to solvent ([2]; Hexadecane, 25 C): 0.192 log10 K | log K of transfer, water to solvent ([2]; Hexane, 25 C): 0.05 log10 K | log K of transfer, water to solvent [3]: 0.81 log10 K

SMILES: CCCCCCCCCC
log K of transfer, gas to solvent ([1]; Butanone, 25 C): 4.42 log10 K | log K of transfer, gas to solvent ([1]; Ethanol, 25 C): 3.92 log10 K | log K of transfer, gas to solvent ([1]; Hexadecane, 25 C): 4.68 log10 K | log K of transfer, gas to solvent ([1]; Hexane, 25 C): 5.02 log10 K | log K of transfer, gas to solvent ([1]; Water, 25 C): -2.32 log10 K | log K of transfer, water to solvent ([2]; Butanone, 25 C): 6.74 log10 K | log K of transfer, water to solvent ([2]; Ethanol, 25 C): 6.24 log10 K | log K of transfer, water to solvent ([2]; Hexadecane, 25 C): 7 log10 K | log K of transfer, water to solvent ([2]; Hexane, 25 C): 7.34 log10 K | log K of transfer, water to solvent [3]: 5.88 log10 K

The next lines start with the values.

log K of transfer, gas to solvent ([1]; Hexadecane, 25 C): 4.01 log10 K | log K of transfer, gas to solvent ([1]; Hexane, 25 C): 4.31 log10 K | log K of transfer, gas to solvent ([1]; Methanol, 25 C): 3.15 log10 K | log K of transfer, gas to solvent ([1]; Water, 25 C): -1.63 log10 K | log K of transfer, water to solvent ([2]; Hexadecane, 25 C): 5.64 log10 K | log K of transfer, water to solvent ([2]; Hexane, 25 C): 5.94 log10 K | log K of transfer, water to solvent ([2]; Methanol, 25 C): 4.78 log10 K | log K of transfer, water to solvent [3]: 5.19 log10 K
SMILES: CCC(CC)(CC)CC

log K of transfer, gas to solvent ([1]; CCl4, 25 C): 5.42 log10 K | log K of transfer, gas to solvent ([1]; Chlorobenzene, 25 C): 5.86 log10 K | log K of transfer, gas to solvent ([1]; Hexadecane, 25 C): 4.85 log10 K | log K of transfer, gas to solvent ([1]; Hexane, 25 C): 4.96 log10 K | log K of transfer, gas to solvent ([1]; Water, 25 C): 4.6 log10 K | log K of transfer, water to solvent ([2]; CCl4, 25 C): 0.82 log10 K | log K of transfer, water to solvent ([2]; Chlorobenzene, 25 C): 1.26 log10 K | log K of transfer, water to solvent ([2]; Hexadecane, 25 C): 0.256 log10 K | log K of transfer, water to solvent ([2]; Hexane, 25 C): 0.362 log10 K | log K of transfer, water to solvent [3]: 2.35 log10 K
SMILES: Cc1cc(C)cc(O)c1

log K of transfer, gas to solvent ([1]; 1,2-Dichloroethane, 25 C): 3.19 log10 K | log K of transfer, gas to solvent ([1]; Acetonitrile, 25 C): 2.51 log10 K | log K of transfer, gas to solvent ([1]; Butan-1-ol, 25 C): 3.1 log10 K | log K of transfer, gas to solvent ([1]; Butanone, 25 C): 3.22 log10 K | log K of transfer, gas to solvent ([1]; Butyronitrile, 25 C): 3.01 log10 K | log K of transfer, gas to solvent ([1]; CCl4, 25 C): 3.72 log10 K | log K of transfer, gas to solvent ([1]; Chlorobenzene, 25 C): 3.69 log10 K | log K of transfer, gas to solvent ([1]; Chloroform, 25 C): 3.63 log10 K | log K of transfer, gas to solvent ([1]; Cyclohexanone, 25 C): 3.15 log10 K | log K of transfer, gas to solvent ([1]; Dichloromethane, 25 C): 3.47 log10 K | log K of transfer, gas to solvent ([1]; Ethanol, 25 C): 2.94 log10 K | log K of transfer, gas to solvent ([1]; Hexadecane, 25 C): 3.48 log10 K | log K of transfer, gas to solvent ([1]; Hexane, 25 C): 3.68 log10 K | log K of transfer, gas to solvent ([1]; Methanol, 25 C): 2.66 log10 K | log K of transfer, gas to solvent ([1]; Perfluoroalkane, 25 C): 2.45 log10 K | log K of transfer, gas to solvent ([1]; Propan-1-ol, 25 C): 2.95 log10 K | log K of transfer, gas to solvent ([1]; Propan-2-ol, 25 C): 2.95 log10 K | log K of transfer, gas to solvent ([1]; Propanone, 25 C): 3.03 log10 K | log K of transfer, gas to solvent ([1]; Propionitrile, 25 C): 2.83 log10 K | log K of transfer, gas to solvent ([1]; Tetrahydrofuran, 25 C): 3.59 log10 K | log K of transfer, gas to solvent ([1]; Water, 25 C): -1.88 log10 K | log K of transfer, water to solvent ([2]; 1,2-Dichloroethane, 25 C): 5.07 log10 K | log K of transfer, water to solvent ([2]; Acetone, 25 C): 4.91 log10 K | log K of transfer, water to solvent ([2]; Acetonitrile, 25 C): 4.39 log10 K | log K of transfer, water to solvent ([2]; Butan-1-ol, 25 C): 4.98 log10 K | log K of transfer, water to solvent ([2]; Butanone, 25 C): 5.1 log10 K | log K of transfer, water to solvent ([2]; Butyronitrile, 25 C): 4.89 log10 K | log K of transfer, water to solvent ([2]; CCl4, 25 C): 5.6 log10 K | log K of transfer, water to solvent ([2]; Chlorobenzene, 25 C): 5.57 log10 K | log K of transfer, water to solvent ([2]; Chloroform, 25 C): 5.51 log10 K | log K of transfer, water to solvent ([2]; Cyclohexanone, 25 C): 5.03 log10 K | log K of transfer, water to solvent ([2]; Dichloromethane, 25 C): 5.35 log10 K | log K of transfer, water to solvent ([2]; Ethanol, 25 C): 4.82 log10 K | log K of transfer, water to solvent ([2]; Hexadecane, 25 C): 5.36 log10 K | log K of transfer, water to solvent ([2]; Hexane, 25 C): 5.56 log10 K | log K of transfer, water to solvent ([2]; Methanol, 25 C): 4.54 log10 K | log K of transfer, water to solvent ([2]; Perfluoroalkane, 25 C): 4.33 log10 K | log K of transfer, water to solvent ([2]; Propan-1-ol, 25 C): 4.83 log10 K | log K of transfer, water to solvent ([2]; Propan-2-ol, 25 C): 4.83 log10 K | log K of transfer, water to solvent ([2]; Propionitrile, 25 C): 4.71 log10 K | log K of transfer, water to solvent ([2]; Tetrahydrofuran, 25 C): 5.47 log10 K | log K of transfer, water to solvent [3]: 4.8 log10 K
SMILES: CC(C)C(C)C(C)C
